{
  "source": "patent US20210311061A1",
  "about": "“USE OF TROP-2 AS PREDICTIVE MARKER OF RESPONSE TO ANTI-TUMOR THERAPY BASED ON INHIBITORS OF CD9, AKT AND MOLECULES OF THE TETRASPANIN SIGNALLING NETWORK” (ONCOXX BIOTECH S.R.L., priority 2012, published 2021)",
  "molecules": {"B1": {"name": "caveolin (other, murine, UniProt P49817 2-178, looked up)", "chain": "SGGKYVDSEGHLYTVPIREQGNIYKPNNKAMADEVTEKQVYDAHTKEIDLVNRDPKHLNDDVVKIDFEDVIAEPEGTHSFDGIWKASFTTFTVTKYWFYRLLSTIFGIPMALIWGIYFAILSFLHIWAVVPCIKSFLIEIQCISRVYSIYVHTFCDPLFEAIGKIFSNIRISTQKEI", "notes": "Lipid-raft marker used as negative control in the confocal, co-capping and footprint analyses; also called caveolin-1"}},
  "key": {"[1]": {"tested_on": "MTE 4-14 cells transfected with Trop-2", "test": "In vitro cell-growth assay, MTE 4-14 cells transfected with Trop-2", "assay_type": "cell-based, murine", "details": "siRNA transfection, growth curves, FIG. 7d", "procedure": "(§1) MTE 4-14 cells transfected with the empty vector or with Trop-2 were seeded at 1.5-3×10^3 cells/well in 96-well plates (five replica wells per data point). Cell numbers were quantified by the MTT colorimetric assay (Roche Molecular Biochemicals, Mannheim, Germany) or by staining with crystal violet. Cell numbers were normalised against a reference standard curve of serially diluted cell samples.\n(§2) Cells were treated with 50-100-200-400 nM A6730_SIGMA (Sigma Technical Company, St Louis, Mo. 63178-9916) or with 400 nM MK-2206 (Selleck Chemicals, Houston, Tex.) to inhibit Akt. Stock solutions were prepared in DMSO and diluited in ethanol or water, with the final concentration of DMSO and ethanol never exceeding 0.1% and 1% respectively. Control cells received vehicle alone. A second treatment was performed 24 hours after seeding.\n(§3) The corresponding constructs were transiently transfected into MTE 4-14 cells, and their effect on cell proliferation was evaluated. The levels of transcripts after silencing were quantified by real-time RT-PCR. siRNAs directed against irrelevant targets were used as negative controls, chosen after thorough verification of the absence of spurious effects on cell growth. […]"}, "[2]": {"tested_on": "MTE 4-14 cells transfected with the empty vector", "test": "In vitro cell-growth assay, MTE 4-14 cells transfected with the empty vector", "assay_type": "cell-based, murine", "details": "siRNA transfection, growth curves, FIG. 7d", "procedure": "as §1, §2, §3"}, "Trop-2 [3]": {"tested_on": "Trop-2", "test": "Precipitation of cholesterol from BRIJ lysate, precipitation of Trop-2", "details": "MTE4-14 cells transfected with Trop-2; Western blot, FIG. 3f", "procedure": "Cells were also harvested by scraping and lysed in buffer with 1% BRIJ. The supernatant was mixed with either 1/10 (vol/vol) methanol (control) or 1/10 (vol/vol) 10% digitonin in methanol, and incubated on ice for 10 min. Cell membranes were recovered by centrifugation at 12,000 g for 15 min. The pellet was washed in cold acetone, resuspended in Laemmli buffer and analysed by Western blotting."}, "[4]": {"tested_on": "Colo205 colon cancer cells", "test": "Xenografts in athymic nude mice, Colo205", "details": "0.35 mg/mouse intraperitoneally every day, in vivo growth curves", "procedure": "(§4) MTE 4-14 immortalized cell line transfected with Trop-2 (Alberti, Nutini et al. 1994), or Colo205 colon cancer cells, endogenously expressing Trop-2, were injected subcutaneously (4×10^6 cells/injection) into nude mice groups (8 weeks females, CD1-Foxn1 nu/nu mice (Charles River Laboratories, Calco, Lecco, Italy). MTE 4-14 cells transfected with Trop-2 were co-injected with Matrigel 1:3 vol/vol (growth factor reduced matrix, BD Biosciences, Franklin Lakes, N.J. USA). A stock solution of MK-2206 in DMSO was diluted at the time of use in apyrogenic saline solution, to a final concentration of 0.7 mg/ml, and the drug was administered intraperitoneally at a dose of 0.35 mg/mouse every day, starting from the time in which the tumors became palpable. Control group mice were treated with the vehicle alone. Mice were visually inspected every 5-7 days and the major and minor diameters of the experimental tumors were measured. The tumor volume was calculated using the formula for the volume of ellipsoid (Dxd2/2). MTE 4-14 cells transfected with the empty vector were not tumorigenic in this model. […]"}, "[5]": {"tested_on": "MTE 4-14 cells transfected with Trop-2", "test": "Xenografts in athymic nude mice, MTE 4-14 transfected with Trop-2", "details": "MTE 4-14/Trop-2; 0.35 mg/mouse intraperitoneally every day; in vivo growth curves", "procedure": "as §4"}, "Akt": {"tested_on": "Akt", "test": "Western blot of Akt phosphorylation in MTE 4-14 transfectants with or without PMA", "assay_type": "cell-based, murine", "procedure": "Western blotting was performed as previously described (El Sewedy, Fornaro et al. 1998). In brief, cell lysates were analyzed by electrophoresis on denaturing polyacrylamide gel (SDS-PAGE) and transfered onto nitrocellulose filters. Filters were incubated with the relevant primary antibodies (Abcam, Cambridge, UK; Santa Cruz) in TBS with 5% non-fat dried milk. Hybridized filters were washed in TBS, 0.1% Tween-20. […] Signal intensity was quantified with NIH-image 1.62, using as reference a Kodak gray-scale standards power curve (www.kodak.com)."}, "Trop-2 [6]": {"tested_on": "Trop-2", "test": "Depletion of cholesterol from cell membranes, release of Trop-2", "assay_type": "cell-based", "details": "MTE4-14 cells transfected with Trop-2; 10 mM, 37° C., 45 min; Western blot, FIG. 3f", "procedure": "To deplete cell membranes of cholesterol, intact cells were washed three times in PBS to remove serum and incubated in DMEM with 10 mM methyl-β-cyclodextrin at 37° C. for 45 min. Control cells were processed in parallel in the absence of methyl-β-cyclodextrin. Samples were centrifuged at 2000 g to remove cells and cell debris. Proteins in the supernatant were precipitated in trichloroacetic acid and analysed by Western blotting."}, "[7]": {"target": "T1, Trop-2 (human, wild-type) (human, UniProt P09758 27-323)", "T1 construct": "whole, on cells; Full-length protein expressed in cells (MTE 4-14 transfectants, MCF7); also called T2", "T1 sequence (looked up)": "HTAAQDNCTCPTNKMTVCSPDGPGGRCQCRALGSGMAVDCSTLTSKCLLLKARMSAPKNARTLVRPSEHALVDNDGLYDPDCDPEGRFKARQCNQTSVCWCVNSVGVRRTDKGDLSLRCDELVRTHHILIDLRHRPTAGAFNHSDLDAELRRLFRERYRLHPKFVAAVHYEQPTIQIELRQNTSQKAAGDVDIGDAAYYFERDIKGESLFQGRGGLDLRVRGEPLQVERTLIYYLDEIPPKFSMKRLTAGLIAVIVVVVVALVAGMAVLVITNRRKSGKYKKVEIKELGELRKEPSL", "test": "confocal microscopy of intact cells, co-capping and cell footprints, MTE 4-14 cells transfected with Trop-2", "text": "FIG. 3. Interaction of Trop-2 and PKCα with tetraspanin molecules and CD9. (a-d) Confocal microscopy analysis of intact cell membranes (a), membrane areas showing co-capping (b), footprints of cell membranes (c, d) of MTE 4-14 cells transfected with Trop-2 (a-c, d top) or with the empty vector (d bottom) stained simultaneously with anti-Trop-2 and anti-CD9 (member of tetraspanin webs) or anti-caveolin (negative control) (a-c) or anti-CD9 and anti PKCα (d) conjugated with fluorescent molecules. Areas of colocalization are indicated by arrowheads. (e) Co-immunoprecipitation (IP) of Trop-2, PKCα, CD9 and tetraspanins. Immunoprecipitation was performed using primary antibodies against murine CD9, CD81 and CD151 (MTE 4-14cells) or human CD9, CD82 and CD151 (MCF7 cells); the presence of Trop-2 and PKCα in immunoprecipites was detected by Western blot. IP with anti-Trop-2: positive control. (f) Trop-2/cholesterol association. Release of Trop-2 in the culture medium after treatment with methyl-β-cyclodextrin (MβCD) (left). Precipitation of Trop-2 with digitonin from BRIJ lysate (right). The treatments were performed on MTE4-14 cells transfected with Trop-2, and the presence of Trop-2 in the soluble and insoluble fractions was assessed by Western blot."}},
  "data": [
    {"molecule": "anti-CD9 siRNA: anti-CD9 siRNA with target sense sequence 5′ GGTAGCAAGT GCATCAAAT 3′, expressed as hairpin RNA from pSUPER vector (sense GGTAGCAAGTGCATCAAAT; antisense ATTTGATGCACTTGCTACC; listed as Mus musculus)", "values": [
      {"measurement": "proliferation of MTE 4-14 cells expressing Trop-2", "setting": "[1]", "value": "striking reduction"},
      {"measurement": "proliferation of Trop-2-negative cells", "setting": "[2]", "value": "essentially no impact"}
    ]},
    {"molecule": "C[C@@H]1CC[C@@]2(OC1)O[C@H]1[C@@H](O)[C@H]3[C@@H]4CC[C@H]5C[C@@H](O[C@@H]6O[C@H](CO)[C@H](O[C@@H]7O[C@H](CO)[C@@H](O)[C@H](O[C@@H]8OC[C@@H](O)[C@H](O)[C@H]8O)[C@H]7O[C@@H]7O[C@H](CO)[C@H](O)[C@H](O[C@@H]8O[C@H](CO)[C@@H](O)[C@H](O)[C@H]8O)[C@H]7O)[C@H](O)[C@H]6O)[C@H](O)C[C@]5(C)[C@H]4CC[C@]3(C)[C@H]1[C@@H]2C", "note": "[digitonin]", "values": [
      {"measurement": "precipitation of Trop-2 from lysates of cell membranes in BRIJ", "setting": "Trop-2 [3]", "value": "precipitation of Trop-2"}
    ]},
    {"molecule": "NC1(c2ccc(-c3nc4ccn5c(=O)[nH]nc5c4cc3-c3ccccc3)cc2)CCC1", "note": "[MK-2206]", "values": [
      {"measurement": "Difference between control and treated tumors, P (two-way ANOVA)", "setting": "[4]", "value": "< 0.0001"},
      {"measurement": "Difference between control and treated tumors, P (two-way ANOVA)", "setting": "[5]", "value": "< 0.0001"}
    ]},
    {"molecule": "CCCCCCCCCCCCCC(=O)O[C@@H]1[C@@H](C)[C@@]2(O)[C@@H](C=C(CO)C[C@]3(O)C(=O)C(C)=C[C@@H]23)[C@@H]2C(C)(C)[C@]12OC(C)=O", "note": "[PMA]", "values": [
      {"measurement": "Akt-S473 phosphorylation", "setting": "Akt; MTE 4-14 cells transfected with Trop-2, FIG. 6b", "value": "reduction, further increased by PMA"},
      {"measurement": "Akt-T308 phosphorylation levels", "setting": "Akt; MTE 4-14 transfectants, FIG. 6b", "value": "no effect"}
    ]},
    {"molecule": "methyl-β-cyclodextrin", "values": [
      {"measurement": "release of Trop-2 in the culture medium", "setting": "Trop-2 [6]", "value": "induce the release of Trop-2 in the culture medium"}
    ]},
    {"molecule": "B1", "values": [
      {"measurement": "binding result", "setting": "[7]", "value": "no binding"}
    ]}
  ]
}
